From PMC7419507, “In vitro Cas9-assisted editing of modular polyketide synthase genes to produce desired natural product derivatives” (Nature Communications, 2020)
Where “and” joins values, the source holds several entries; their conditions need not be identical. Identical values can stand only once.

Columns and labels:
FKBP12 and mTOR = target: T1, FKBP12 and mTOR (Homo sapiens, UniProt P42345+P62942); experiment: Fluoppi analysis: induction of FKBP12-mTOR complex formation in transfected HeLa cells; type: cell-based; settings: for Foci intensity: raw data, one replicate per line
T1 construct: host or cells: HeLa cells
Method in brief: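 HeLa cells co-transfected with phAG-mTOR and pAsh-FKBP12, seeded 3000 cells/well, then compound-treated 1 h after 24 h at 37 °C. Fixed, Hoechst-stained, imaged by high-content microscopy; foci fluorescence normalized to total cell fluorescence, EC50 computed.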

[1] = test system: human ovarian adenocarcinoma SKOV-3 cells; experiment: Cytotoxicity assay (CellTiter-Glo, 72 h), SKOV-3; type: cell-based; settings: raw replicate data
Method in brief: (§1)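 Luminescent ATP read-out (CellTiter-Glo) quantified surviving cells after a 72 h incubation with 2-fold diluted compounds in 0.5% DMSO, added 4 h post-seeding at 1000 cells/well.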

[2] = Cytotoxicity assay (CellTiter-Glo, 72 h), SKOV-3; type: cell-based, human; settings: human, raw replicate data, read-out: SKOV3 viability (%)
Method in brief: as §1

T lymphoma Jurkat cells = experiment: Cytotoxicity assay (CellTiter-Glo, 72 h), Jurkat; type: cell-based; settings: raw data (replicates)
Method in brief: as §1

[3] = Cytotoxicity assay (CellTiter-Glo, 72 h), Jurkat; type: cell-based; settings: human, Jurkat cells (T lymphoma), raw data (replicates)
Method in brief: as §1

[4] = test system: Jurkat, SKOV-3 and MESO-1 cells; experiment: Cytotoxicity assay, statements for all tested cell lines together; type: cell-based; settings: Jurkat, SKOV-3 and MESO-1 cells, 72 h
Method in brief: as §1

T1 sequence (P42345 2025-2114 limits assumed): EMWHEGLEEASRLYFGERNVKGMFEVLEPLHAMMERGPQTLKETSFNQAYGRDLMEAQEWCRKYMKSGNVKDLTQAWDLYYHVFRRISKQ
T1 sequence (P62942 whole entry): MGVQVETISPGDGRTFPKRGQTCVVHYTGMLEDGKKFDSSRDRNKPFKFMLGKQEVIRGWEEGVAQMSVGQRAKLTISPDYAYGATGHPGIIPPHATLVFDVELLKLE

With CO[C@@H]1/C=C/C=C/[C@@H](C)C[C@@H](C)C(=O)C[C@H](O)/C(C)=C/[C@@H](C)C(=O)C[C@@H]([C@H](C)C[C@@H]2CC[C@@H](O)[C@H](OC)C2)OC(=O)[C@@H]2CCCCN2C(=O)C(=O)[C@]2(O)O[C@@H](CC[C@H]2C)C1 [Compound 9] the “PPI-inducing (binding enhancing) activity between FKBP12 and mTOR compared with rapamycin (1), in words” value (FKBP12 and mTOR; Fluoppi) was “relatively weaker activities”, the EC50 (FKBP12 and mTOR; Fluoppi, HeLa cells, 1 h treatment, three independent biological replicates, read-out: EC50, induction of the formation of FKBP-mTOR complex) was 34 nM and the Foci intensity (FKBP12 and mTOR; conc 9.53674e-5 uM) was 0.01796 and 0.01734 and 0.0265. The Foci intensity (FKBP12 and mTOR; conc 0.000190735 uM) was 0.007038 and 0.008763 and 0.03506, the Foci intensity (FKBP12 and mTOR; conc 0.00038147 uM) was 0.01287 and 0.02231 and 0.02044 and the Foci intensity (FKBP12 and mTOR; conc 0.000762939 uM) was 0.01526 and 0.03513 and 0.01148. For the same molecule, the Foci intensity (FKBP12 and mTOR; conc 0.00152588 uM) was 0.01977 and 0.009687 and 0.01946, the Foci intensity (FKBP12 and mTOR; conc 0.00305176 uM) was 0.01393 and 0.02436 and 0.01751 and the Foci intensity (FKBP12 and mTOR; conc 0.00610352 uM) was 0.02196 and 0.02086 and 0.01607. The Foci intensity (FKBP12 and mTOR; conc 0.012207 uM) was 0.03665 and 0.02818 and 0.0403, the Foci intensity (FKBP12 and mTOR; conc 0.0244141 uM) was 0.1568 and 0.166 and 0.1355 and the Foci intensity (FKBP12 and mTOR; conc 0.0488281 uM) was 0.2266 and 0.245 and 0.2523. The Foci intensity (FKBP12 and mTOR; conc 0.0976562 uM) was 0.282 and 0.2404 and 0.219, the Foci intensity (FKBP12 and mTOR; conc 0.195312 uM) was 0.2721 and 0.2692 and 0.2013 and the Foci intensity (FKBP12 and mTOR; conc 0.390625 uM) was 0.3169 and 0.313 and 0.309. The Foci intensity (FKBP12 and mTOR; conc 0.78125 uM) was 0.3134 and 0.2906 and 0.2987, the Foci intensity (FKBP12 and mTOR; conc 1.5625 uM) was 0.3134 and 0.3737 and 0.3166 and the Foci intensity (FKBP12 and mTOR; conc 3.125 uM) was 0.3491 and 0.3731 and 0.3792. For the same molecule, the Foci intensity (FKBP12 and mTOR; conc 6.25 uM) was 0.279 and 0.3226 and 0.3138, the Foci intensity (FKBP12 and mTOR; conc 12.5 uM) was 0.3645 and 0.3352 and 0.3161 and the Foci intensity (FKBP12 and mTOR; conc 25 uM) was 0.2867 and 0.3845 and 0.2898. For the same molecule, the Foci intensity (FKBP12 and mTOR; conc 50 uM) was 0.3496 and 0.3134 and 0.3176, the “SKOV3 viability (%)” value ([1]; conc 9.53674e-5 uM) was 105.9% and 100.3% and the “SKOV3 viability (%)” value ([1]; conc 0.000190735 uM) was 101.8% and 104.0%. The “SKOV3 viability (%)” value ([1]; conc 0.00038147 uM) was 103.8%, the “SKOV3 viability (%)” value ([1]; conc 0.000762939 uM) was 99.7% and 104.2% and the “SKOV3 viability (%)” value ([1]; conc 0.00152588 uM) was 108.5% and 105.8%. The “SKOV3 viability (%)” value ([1]; conc 0.00305176 uM) was 98.1%, the “SKOV3 viability (%)” value ([1]; conc 0.00610352 uM) was 101.6% and 106.7% and the “SKOV3 viability (%)” value ([1]; conc 0.012207 uM) was 93.5% and 95.1%. For the same molecule, the “SKOV3 viability (%)” value ([1]; conc 0.0244141 uM) was 95.8% and 102.2%, the “SKOV3 viability (%)” value ([1]; conc 0.0488281 uM) was 93.6% and 92.4% and the “SKOV3 viability (%)” value ([1]; conc 0.0976562 uM) was 93.2% and 87.5%. For the same molecule, the “SKOV3 viability (%)” value ([1]; conc 0.195312 uM) was 79.8% and 81.0%, the “SKOV3 viability (%)” value ([1]; conc 0.390625 uM) was 82.0% and 78.5% and the “SKOV3 viability (%)” value ([1]; conc 0.78125 uM) was 67.6% and 71.1%. The “SKOV3 viability (%)” value ([1]; conc 1.5625 uM) was 76.5% and 72.9%, the “SKOV3 viability (%)” value ([1]; conc 3.125 uM) was 73.0% and 75.2% and the “SKOV3 viability (%)” value ([1]; conc 6.25 uM) was 70.8% and 73.4%. For the same molecule, the “SKOV3 viability (%)” value ([1]; conc 12.5 uM) was 62.7% and 63.5%, the “SKOV3 viability (%)” value ([1]; conc 25 uM) was 72.9% and the “SKOV3 viability (%)” value ([1]; conc 50 uM) was 57.2% and 56.0%. The viability at 72 h, 9.53674e-05 uM ([2]; SKOV-3 cells (ovarian adenocarcinoma), conc 9.53674e-5 uM) was 103%, the viability at 72 h, 0.000190735 uM ([2]; SKOV-3 cells (ovarian adenocarcinoma), conc 0.000190735 uM) was 105% and the viability at 72 h, 0.00038147 uM ([2]; SKOV-3 cells (ovarian adenocarcinoma), conc 0.00038147 uM) was 97.1%. The viability at 72 h, 0.000762939 uM ([2]; SKOV-3 cells (ovarian adenocarcinoma), conc 0.000762939 uM) was 101%, the viability at 72 h, 0.00152588 uM ([2]; SKOV-3 cells (ovarian adenocarcinoma), conc 0.00152588 uM) was 102% and the viability at 72 h, 0.00305176 uM ([2]; SKOV-3 cells (ovarian adenocarcinoma), conc 0.00305176 uM) was 97.4%. The viability at 72 h, 0.00610352 uM ([2]; SKOV-3 cells (ovarian adenocarcinoma), conc 0.00610352 uM) was 105%, the viability at 72 h, 0.012207 uM ([2]; SKOV-3 cells (ovarian adenocarcinoma), conc 0.012207 uM) was 99.1% and the viability at 72 h, 0.0244141 uM ([2]; SKOV-3 cells (ovarian adenocarcinoma), conc 0.0244141 uM) was 97.2%. It also gave a viability at 72 h, 0.0488281 uM ([2]; SKOV-3 cells (ovarian adenocarcinoma), conc 0.0488281 uM) of 90.5%, a viability at 72 h, 0.0976562 uM ([2]; SKOV-3 cells (ovarian adenocarcinoma), conc 0.0976562 uM) of 92.1% and a viability at 72 h, 0.195312 uM ([2]; SKOV-3 cells (ovarian adenocarcinoma), conc 0.195312 uM) of 75%. The viability at 72 h, 0.390625 uM ([2]; SKOV-3 cells (ovarian adenocarcinoma), conc 0.390625 uM) was 80.5%, the viability at 72 h, 12.5 uM ([2]; SKOV-3 cells (ovarian adenocarcinoma), conc 12.5 uM) was 60.9% and the viability at 72 h, 25 uM ([2]; SKOV-3 cells (ovarian adenocarcinoma), conc 25 uM) was 70.4%. For the same molecule, the viability at 72 h, 50 uM ([2]; SKOV-3 cells (ovarian adenocarcinoma), conc 50 uM) was 52.8%, the viability at 72 h, 0.78125 uM ([2]; SKOV-3 ovarian adenocarcinoma cells, conc 0.78125 uM) was 70.1% and the viability at 72 h, 1.5625 uM ([2]; SKOV-3 ovarian adenocarcinoma cells, conc 1.5625 uM) was 73.8%. For the same molecule, the viability at 72 h, 3.125 uM ([2]; SKOV-3 ovarian adenocarcinoma cells, conc 3.125 uM) was 65.5%, the viability at 72 h, 6.25 uM ([2]; SKOV-3 ovarian adenocarcinoma cells, conc 6.25 uM) was 70.2% and the “Jurkat viability (%)” value (T lymphoma Jurkat cells; conc 9.53674e-5 uM) was 97.9% and 103.8%. For the same molecule, the “Jurkat viability (%)” value (T lymphoma Jurkat cells; conc 0.000190735 uM) was 101.0% and 98.6%, the “Jurkat viability (%)” value (T lymphoma Jurkat cells; conc 0.00038147 uM) was 107.1% and 103.4% and the “Jurkat viability (%)” value (T lymphoma Jurkat cells; conc 0.000762939 uM) was 103.5% and 104.2%. For the same molecule, the “Jurkat viability (%)” value (T lymphoma Jurkat cells; conc 0.00152588 uM) was 104.2% and 102.7%, the “Jurkat viability (%)” value (T lymphoma Jurkat cells; conc 0.00305176 uM) was 97.4% and 96.9% and the “Jurkat viability (%)” value (T lymphoma Jurkat cells; conc 0.00610352 uM) was 101.3% and 103.8%. The “Jurkat viability (%)” value (T lymphoma Jurkat cells; conc 0.012207 uM) was 97.2% and 97.8%, the “Jurkat viability (%)” value (T lymphoma Jurkat cells; conc 0.0244141 uM) was 92.4% and 98.8% and the “Jurkat viability (%)” value (T lymphoma Jurkat cells; conc 0.0488281 uM) was 88.4% and 81.5%. For the same molecule, the “Jurkat viability (%)” value (T lymphoma Jurkat cells; conc 0.0976562 uM) was 82.2% and 81.2%, the “Jurkat viability (%)” value (T lymphoma Jurkat cells; conc 0.195312 uM) was 57.1% and 58.0% and the “Jurkat viability (%)” value (T lymphoma Jurkat cells; conc 0.390625 uM) was 50.5% and 48.6%. For the same molecule, the “Jurkat viability (%)” value (T lymphoma Jurkat cells; conc 0.78125 uM) was 40.3% and 41.8%, the “Jurkat viability (%)” value (T lymphoma Jurkat cells; conc 1.5625 uM) was 36.4% and 39.4% and the “Jurkat viability (%)” value (T lymphoma Jurkat cells; conc 3.125 uM) was 29.6% and 29.1%. For the same molecule, the “Jurkat viability (%)” value (T lymphoma Jurkat cells; conc 6.25 uM) was 28.9% and 29.5%, the “Jurkat viability (%)” value (T lymphoma Jurkat cells; conc 12.5 uM) was 26.0% and 28.1% and the “Jurkat viability (%)” value (T lymphoma Jurkat cells; conc 25 uM) was 26.9% and 28.7%. The “Jurkat viability (%)” value (T lymphoma Jurkat cells; conc 50 uM) was 17.4% and 19.3%, the viability at 72 h, 9.53674e-05 uM ([3]; conc 9.53674e-5 uM) was 97.1% and the viability at 72 h, 0.000190735 uM ([3]; conc 0.000190735 uM) was 100%. It also gave a viability at 72 h, 0.00038147 uM ([3]; conc 0.00038147 uM) of 106%, a viability at 72 h, 0.000762939 uM ([3]; conc 0.000762939 uM) of 102% and a viability at 72 h, 0.00152588 uM ([3]; conc 0.00152588 uM) of 106%. For the same molecule, the viability at 72 h, 0.00305176 uM ([3]; conc 0.00305176 uM) was 97.7%, the viability at 72 h, 0.00610352 uM ([3]; conc 0.00610352 uM) was 105% and the viability at 72 h, 0.012207 uM ([3]; conc 0.012207 uM) was 92.7%. The viability at 72 h, 0.0244141 uM ([3]; conc 0.0244141 uM) was 93.7%, the viability at 72 h, 0.0488281 uM ([3]; conc 0.0488281 uM) was 86% and the viability at 72 h, 0.0976562 uM ([3]; conc 0.0976562 uM) was 74.9%. It also gave a viability at 72 h, 0.195312 uM ([3]; conc 0.195312 uM) of 60.9%, a viability at 72 h, 0.390625 uM ([3]; conc 0.390625 uM) of 51.4% and a viability at 72 h, 0.78125 uM ([3]; conc 0.78125 uM) of 42.4%. For the same molecule, the viability at 72 h, 1.5625 uM ([3]; conc 1.5625 uM) was 36.2%, the viability at 72 h, 3.125 uM ([3]; conc 3.125 uM) was 29.7% and the viability at 72 h, 6.25 uM ([3]; conc 6.25 uM) was 31.2%. For the same molecule, the viability at 72 h, 12.5 uM ([3]; conc 12.5 uM) was 29%, the viability at 72 h, 25 uM ([3]; conc 25 uM) was 27.4% and the viability at 72 h, 50 uM ([3]; conc 50 uM) was 18.3%. For the same molecule, the “Effect on cell viability, in words” value [4] was “slightly suppressed the cell viabilities”.
